{"source": "patent EP0237472A2", "about": "“An ameliorating agent for pulmonary fibrosis and the use thereof” (Zyma SA, priority 1986, dated 1987)", "key": {"[1]": {"test": "acute oral toxicity (LD50) to male mice", "conditions": "mouse, in vivo"}, "[2]": {"tested_on": "female Sprague-Dawley rats", "test": "CCl4-induced lung fibrosis (lung collagen accumulation) in rats", "type": "in vivo", "protocol": "The animals used were female Sprague-Dawley rats fed on a commercial diet (Hankkija Cy, Helsinki, Finland). Forty rats were divided into four groups of 10, the first serving as a control group. In order to investigate the effect of Compound 4 on lung collagen accumulation, the injury was induced by injecting carbon tetrachloride (CC14) intraperitoneally at doses of 0.1 ml/100 g body weight (diluted with an equal volume of paraffin oil) twice a week for 40 days. The third group received simultaneous doses of CCl4 and Compound 4. Compound 4 was suspended in arabic gum and given by gastric intubation at doses of 100 mg/kg body weight 5 times weekly for 40 days. The fourth group received only Compound 4. Two animals both in the CC14 group died during the experiment.\nAt the end of the experiment, the rats were anaesthetized with ether, weighed, and decapitated. The lungs were rapidly removed, weighed and the right one of them stored at -70°C until assayed. Tissue specimens for the determination of hydroxyproline and total protein were homogenized with an Ultra-Turrax homogenizer at 0°C in 0.5 M acetic acid (5 ml/g of tissue), dialyzed against 0.5 M acetic acid, and hydrolyzed in 6 M HC1 at 120°C overnight. Tissue hydroxyproline was assayed by the method of Kivirikko et al. and tissue total protein using the a-amino nitrogen method of Rubinstein and Pryce.\nThe left lung was fixed by slowly injecting a 4% formaldehyde and 1% glutaraldehyde solution into the main bronchus with the 1 ml syringe under magnifying lens control. Inflation of the lungs with fixative was continued until the pleura was smooth and the organ appeared to be filled. The bronchus was then left unclosed and the lungs were placed in the same solution until fixed. When the bronchus is left unclosed, the human lungs, at least, seem to assume a fairly constant volume during fixation, a little greater than the functional residual capacity. The lungs were then sliced sagittally and the slices embedded in paraffin. Sections were cut at 5 µm and stained with heamatoxylin-eosin, Pearl's iron, van Gieson's and Verhoeff's elastic stains."}, "[3]": {"conditions": "CCl4 + Compound 4 (group M+I), CCl4 0.1 ml/100 g i.p. twice a week, Compound 4 100 mg/kg orally 5 times weekly, 40 days"}, "[4]": {"conditions": "Compound 4 alone (group M), 100 mg/kg by gastric intubation 5 times weekly for 40 days, no CCl4"}}, "data": [{"smiles": "COC(=O)C(C(=O)OC)=C1SC=CS1", "note": "[Compound 1]", "values": [{"measurement": "LD50", "setting": "[1]", "value": "> 6000", "unit": "mg/kg"}]}, {"smiles": "CCOC(=O)C(C(=O)OCC)=C1SC=CS1", "note": "[Compound 2]", "values": [{"measurement": "LD50", "setting": "[1]", "value": 4900, "unit": "mg/kg"}]}, {"smiles": "CCCOC(=O)C(C(=O)OCCC)=C1SC=CS1", "note": "[Compound 3]", "values": [{"measurement": "LD50", "setting": "[1]", "value": "> 6000", "unit": "mg/kg"}]}, {"smiles": "CC(C)OC(=O)C(C(=O)OC(C)C)=C1SC=CS1", "note": "[Compound 4]", "values": [{"measurement": "Lung relative protein (mg/g of lung weight)", "setting": "[2]; [3]", "value": "20.61±2.05 mg/g of lung weight"}, {"measurement": "Lung total protein (mg/lungs)", "setting": "[2]; [3]", "value": "40.07±6.05", "unit": "mg/lungs"}, {"measurement": "Lung weight/ body weight (%)", "setting": "[2]; [3]", "value": "0.89±0.17", "unit": "%"}, {"measurement": "total hydroxyproline content of the lungs", "setting": "[2]; CCl4 + Compound 4, 100 mg/kg orally, 40 days (Figure 1)", "value": "normalized the values"}, {"measurement": "foci of necrotic alveolar walls", "setting": "[2]; CCl4 + Compound 4, histology", "value": "All the lungs showed some foci of necrotic alveolar walls"}, {"measurement": "interstitial fibrosis", "setting": "[2]; CCl4 + Compound 4 compared with CCl4-induced rats without Compound 4, histology", "value": "less interstitial fibrosis"}, {"measurement": "Lung relative protein (mg/g of lung weight)", "setting": "[2]; [4]", "value": "22.20±2.76 mg/g of lung weight"}, {"measurement": "Lung total protein (mg/lungs)", "setting": "[2]; [4]", "value": "38.31±4.90", "unit": "mg/lungs"}, {"measurement": "Lung weight/ body weight (%)", "setting": "[2]; [4]", "value": "0.81±0.12", "unit": "%"}, {"measurement": "lungs exhibiting a fairly normal alveolar pattern", "setting": "[2]; rats which received CCl4 and Compound 4, histology", "value": "Five out of the nine"}, {"measurement": "lungs showing variable evidence of inflammatory reaction with minimal oedema", "setting": "[2]; rats which received CCl4 and Compound 4, nine lungs, histology", "value": "four"}, {"measurement": "alveolar pattern in the lungs", "setting": "[2]; ten rats which received Compound 4 alone, histology", "value": "normal"}]}, {"smiles": "CCCCOC(=O)C(C(=O)OCCCC)=C1SC=CS1", "note": "[Compound 5]", "values": [{"measurement": "LD50", "setting": "[1]", "value": "> 6000", "unit": "mg/kg"}]}, {"smiles": "CC(C)COC(=O)C(C(=O)OCC(C)C)=C1SC=CS1", "note": "[Compound 6]", "values": [{"measurement": "LD50", "setting": "[1]", "value": 4700, "unit": "mg/kg"}]}, {"smiles": "CCOC(=O)C(C(=O)OC(C)C)=C1SC=CS1", "note": "[Compound 7]", "values": [{"measurement": "LD50", "setting": "[1]", "value": 2700, "unit": "mg/kg"}]}, {"smiles": "COC(=O)C(C(=O)OCC(C)C)=C1SC=CS1", "note": "[Compound 8]", "values": [{"measurement": "LD50", "setting": "[1]", "value": 5800, "unit": "mg/kg"}]}]}
